# From PMC7272617 (Scientific Reports, 2020)
# Where a SMILES comes first, the peptide text is derived from it.
# Tests used:
# [1] = test system: MDR P. aeruginosa clinical isolate No.4; conditions: MDR clinical isolate No.4, 24 h
# [2] = test system: all Gram-positive strains; assay: Mean MIC and therapeutic index, Gram-positive strains; type: cell-based; conditions: 5 Gram-positive strains of Table 3
# [3] = test system: MDR P. aeruginosa isolates; assay: MIC against all tested MDR P. aeruginosa isolates; type: cell-based, Pseudomonas aeruginosa; conditions: times higher than ciprofloxacin
# [4] = test system: Staphylococcus epidermidis ATCC 12228; conditions: ATCC 12228, 24 h
# P. aeruginosa ATCC 27853 [5] = assay: Salt sensitivity: MIC in the presence of physiological salts; type: cell-based, Pseudomonas aeruginosa
# Protocol: The antimicrobial activity of the peptides was determined against both Gram-positive and -negative bacteria including 14 MDR P. aeruginosa clinical isolates from Bhumibol Adulyadej Hospital (Tables 1 and 3). The minimal inhibitory concentration (MIC) of each peptide was measured according to a modification of the National Committee for Clinical Laboratory Standards (NCCLS) broth microdilution method as previously described. Briefly, bacterial cells in mid-log phase were cultured in Müeller-Hinton broth (MHB) and then diluted to 10^7 CFU/ml. Fifty microliters of 2-fold serially diluted peptides, with concentrations ranging from 0.98 to 250 μg/ml in 0.01% (vol/vol) acetic acid and 0.2% (wt/vol) bovine serum albumin (BSA, Sigma), were added to each well of sterile 96-well plates, followed by 50 μl of bacterial solution. Plates were incubated at 37 °C for 24 h, and MICs were defined as the lowest concentration of peptide that prevented visible turbidity. Cultures without peptides and uninoculated MHB were employed as positive and negative controls, respectively. Colony count assays were performed to determine the minimal bactericidal concentrations (MBCs) for determination of time-killing activity. As previously described, a 50 μl aliquot from each non-turbid well identified in the MIC determination experiment was spread on agar plates. MBCs were defined as the lowest concentration of peptides where no colony growth was observed on agar plates after 24 h incubation at 37 °C.
# To test the effect of salts on the antibacterial activity of PA-13, the mid-logarithmic phase (10^7 CFU/ml) of P. aeruginosa ATCC 27853 was exposed to different concentrations of PA-13 in the presence of different physiological salts: 150 mM NaCl; 4.5 mM KCl; 1 mM MgCl2; 6 µM NH4Cl; 8 µM ZnCl2; 4 µM FeCl3; […][22]. After these treatments, the MICs were determined as described above.
# [6] = test system: MDR P. aeruginosa clinical isolate No.3; conditions: MDR clinical isolate No.3, 24 h
# [7] = test system: MDR P. aeruginosa clinical isolate No.1
# [8] = test system: MDR P. aeruginosa clinical isolate No.8; conditions: MDR clinical isolate No.8, 24 h
# [9] = test system: MDR P. aeruginosa clinical isolate No.9; conditions: MDR clinical isolate No.9, 24 h
# P. aeruginosa ATCC 27853 [10] = assay: Membrane-penetrating activity of TAMRA-labelled peptide, flow cytometry; type: cell-based, Pseudomonas aeruginosa; conditions: 1 × MIC, measured with TAMRA-labelled PA-13
# Protocol: To clarify whether bacterial membrane permeabilization resulted from peptide uptake, the interaction of TAMRA-labelled PA-13 with the membrane of bacteria cells was investigated by flow cytometry. […] After incubation, unbound labelled peptide was removed by washing with PBS. Then the fluorescence signal from treated cells was determined by flow cytometry (CytoFlex, Beckman Coulter).
# [11] = test system: MDR P. aeruginosa clinical isolate No.10; conditions: MDR clinical isolate No.10, 24 h
# [12] = test system: Bacillus cereus ATCC 11778; conditions: ATCC 11778, 24 h
# [13] = test system: Escherichia coli O157:H7 MT strain; conditions: E. coli O157:H7 MT strain; MHB, 37 °C, 24 h
# [14] = test system: MDR P. aeruginosa clinical isolate No.7; conditions: MDR clinical isolate No.7, 24 h
# [15] = test system: MDR P. aeruginosa clinical isolate No.5; conditions: MDR clinical isolate No.5, 24 h
# [16] = test system: Acinetobacter baumannii MT strain; conditions: MT strain, 24 h
# P. aeruginosa ATCC 27853 [17] = conditions: ATCC 27853, 24 h
# [18] = test system: L929 mouse fibroblast cells; assay: Cytotoxicity, MTT viability assay; conditions: 3.91 µg/ml, 24 h
# [19] = test system: Salmonella Typhimurium ATCC 13311; conditions: ATCC 13311, 24 h
# [20] = test system: MDR P. aeruginosa clinical isolate No.14; conditions: MDR clinical isolate No.14, 24 h
compound,measurement,setting,value
CC[C@H](C)[C@H](NC(=O)[C@H](CCCNC(=N)N)NC(=O)[C@H](CCCCN)NC(=O)[C@H](C)NC(=O)[C@@H](NC(=O)[C@@H](N)CCCCN)[C@@H](C)CC)C(=O)N[C@@H](Cc1c[nH]c2ccccc12)C(=O)N[C@@H](CCCCN)C(=O)N[C@H](C(=O)N[C@@H](CC(C)C)C(=O)N[C@@H](CCCNC(=N)N)C(=O)N[C@@H](CCCNC(=N)N)C(=O)N[C@@H](CCCNC(=N)N)C(N)=O)[C@@H](C)CC [PA-13] (H-KIAKRIWKILRRR-NH2; N-terminus assumed),MIC,[1],7.81 µg/mL
same,GM (Gr.+ strains): geometric mean of MIC values from all Gram-positive strains,[2],67.19 µg/mL
same,antimicrobial activity relative to ciprofloxacin,[3],8-64 times
same,MIC,[4],3.91 µg/mL
same,MIC in the presence of FeCl3,"P. aeruginosa ATCC 27853 [5]; 4 µM FeCl3, unit inferred",3.91 µg/mL
same,MIC in the presence of NH4Cl,"P. aeruginosa ATCC 27853 [5]; 6 µM NH4Cl, unit inferred",3.91 µg/mL
same,MIC in the presence of ZnCl2,"P. aeruginosa ATCC 27853 [5]; 8 µM ZnCl2, unit inferred",3.91 µg/mL
same,MIC in the presence of MgCl2,"P. aeruginosa ATCC 27853 [5]; 1 mM MgCl2, unit inferred",31.2 µg/mL
same,increase of MIC in the presence of K+,P. aeruginosa ATCC 27853 [5]; 4.5 mM KCl versus control,2 fold
same,MIC in the presence of KCl,"P. aeruginosa ATCC 27853 [5]; 4.5 mM KCl, unit inferred",7.81 µg/mL
same,MIC in the presence of NaCl,"P. aeruginosa ATCC 27853 [5]; 150 mM NaCl, unit inferred",31.2 µg/mL
same,MIC in the presence of CaCl2,"P. aeruginosa ATCC 27853 [5]; […] CaCl2, unit inferred",3.91 µg/mL
same,"MIC, control","P. aeruginosa ATCC 27853 [5]; absence of physiological salts, unit inferred",3.91 µg/mL
same,MIC,[6],7.81 µg/mL
same,MIC,[7],3.91 µg/mL
same,MIC,[8],7.81 µg/mL
same,MIC,[9],7.81 µg/mL
same,time to binding and penetration,P. aeruginosa ATCC 27853 [10],≤ 5 min
same,MIC,[11],7.81 µg/mL
same,MIC,[12],15.63 µg/mL
same,MIC,[13],31.25 µg/mL
same,MIC,[14],7.81 µg/mL
same,MIC,[15],7.81 µg/mL
same,MIC,[16],7.81 µg/mL
same,MBC,P. aeruginosa ATCC 27853 [17],7.81 µg/mL
same,L929 cell survival at the MIC,[18],up to 90%
same,MIC,[19],1.95 µg/mL
same,MIC,[20],7.81 µg/mL
